Data reported in PMC2099433, “The binding site for neohesperidin dihydrochalcone at the human sweet taste receptor” (BMC Structural Biology, 2007).
Residue numbers refer to the chain shown, from its start. Where a SMILES comes first, the peptide text is derived from it.

Legend:
hTAS1R2/hTAS1R3 = biological target: T1, hTAS1R2/hTAS1R3 (Homo sapiens, UniProt Q7RTX0+Q8TE23); assay: Concentration-response curves of sweeteners in the presence of different lactisole concentrations; format: cell-based; settings: for increase of EC50 value by lactisole: presence vs absence of lactisole; for Hill slope: constant over tested lactisole concentrations
T1 construct: expressed in transfected cells; host or cells: HEK293T cells stably expressing G16Gust44
T1 sequence (Q8TE23 20-839): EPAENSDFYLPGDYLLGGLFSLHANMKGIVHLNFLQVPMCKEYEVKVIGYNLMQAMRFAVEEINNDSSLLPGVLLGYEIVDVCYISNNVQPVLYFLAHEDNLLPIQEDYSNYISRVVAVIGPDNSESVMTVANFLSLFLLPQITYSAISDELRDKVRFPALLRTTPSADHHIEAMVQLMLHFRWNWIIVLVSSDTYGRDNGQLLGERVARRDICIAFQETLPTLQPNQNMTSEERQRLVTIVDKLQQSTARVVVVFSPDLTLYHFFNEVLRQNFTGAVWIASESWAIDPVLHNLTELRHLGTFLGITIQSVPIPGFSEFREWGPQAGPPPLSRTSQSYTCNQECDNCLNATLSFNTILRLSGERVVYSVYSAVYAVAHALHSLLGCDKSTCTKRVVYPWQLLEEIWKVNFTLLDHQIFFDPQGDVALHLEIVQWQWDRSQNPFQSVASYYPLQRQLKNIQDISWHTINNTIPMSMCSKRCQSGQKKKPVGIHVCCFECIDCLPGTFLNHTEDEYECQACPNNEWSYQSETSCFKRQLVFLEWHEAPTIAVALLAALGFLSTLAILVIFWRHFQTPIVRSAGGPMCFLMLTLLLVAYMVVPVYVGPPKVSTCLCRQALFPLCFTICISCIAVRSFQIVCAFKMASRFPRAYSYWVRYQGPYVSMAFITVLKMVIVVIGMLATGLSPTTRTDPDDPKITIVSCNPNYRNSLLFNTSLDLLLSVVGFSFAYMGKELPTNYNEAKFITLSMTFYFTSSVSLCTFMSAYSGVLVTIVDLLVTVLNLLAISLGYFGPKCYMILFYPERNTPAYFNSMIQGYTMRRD
T1 sequence (Q7RTX0 21-852): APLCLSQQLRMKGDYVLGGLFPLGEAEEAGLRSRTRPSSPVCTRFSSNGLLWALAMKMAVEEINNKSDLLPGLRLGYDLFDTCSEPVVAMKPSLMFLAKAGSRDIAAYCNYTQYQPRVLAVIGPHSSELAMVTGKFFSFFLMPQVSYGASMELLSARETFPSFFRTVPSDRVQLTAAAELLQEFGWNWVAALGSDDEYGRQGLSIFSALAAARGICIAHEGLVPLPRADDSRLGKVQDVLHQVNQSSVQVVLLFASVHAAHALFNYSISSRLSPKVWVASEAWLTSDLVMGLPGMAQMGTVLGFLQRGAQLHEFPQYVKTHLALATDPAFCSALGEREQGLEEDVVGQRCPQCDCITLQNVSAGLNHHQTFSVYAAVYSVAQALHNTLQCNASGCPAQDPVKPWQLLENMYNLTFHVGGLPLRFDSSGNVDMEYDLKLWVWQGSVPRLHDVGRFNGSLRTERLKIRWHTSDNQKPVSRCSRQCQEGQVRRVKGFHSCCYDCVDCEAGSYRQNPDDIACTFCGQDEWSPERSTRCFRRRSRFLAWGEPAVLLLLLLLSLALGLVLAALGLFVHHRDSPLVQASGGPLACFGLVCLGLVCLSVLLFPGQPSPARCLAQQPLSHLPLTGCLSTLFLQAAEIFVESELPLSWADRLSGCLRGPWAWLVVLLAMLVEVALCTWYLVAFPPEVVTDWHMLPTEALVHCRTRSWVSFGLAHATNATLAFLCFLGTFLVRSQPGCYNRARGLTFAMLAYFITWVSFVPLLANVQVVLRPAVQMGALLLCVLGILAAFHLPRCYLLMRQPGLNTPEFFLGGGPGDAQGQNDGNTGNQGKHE

[1] = biological target: T2, hTAS1R2 + hTAS1R3 S726A^5.39 (Homo sapiens, UniProt Q7RTX0+Q8TE23, S726A); assay: Calcium response (FLIPR), hTAS1R3 mutant coexpressed with hTAS1R2; format: cell-based; settings: variant S726A^5.39; for Emax: read-out: maximal signal (% of wt)
T2 construct: expressed in transfected cells; host or cells: HEK293T cells stably expressing G16Gust44
T2 sequence (Q7RTX0 21-852 S726A): T1 sequence (Q7RTX0 21-852) with S706A
T2 sequence (Q8TE23 20-839): T1 sequence (Q8TE23 20-839)
Experimental: The cDNAs for TAS1Rs tagged at the C-terminus with the herpes simplex virus glycoprotein D (HSV) were transiently transfected into HEK293T cells stably expressing the chimeric G-protein subunit G16Gust44 [44] using Lipofectamine 2000 (Invitrogen, Carlsbad, CA) according to the manufacturer's protocol. 3–4 hours after transfection, DMEM was replaced by low-glucose DMEM supplemented with GlutaMAX and 10% dialyzed FBS (Invitrogen, Carlsbad, CA). 24 h post transfection, cells were loaded for 1 h with the calcium sensitive dye Fluo4-AM (2 μg/ml in DMEM, Molecular Probes, Carlsbad, CA). […] We monitored calcium mobilization following receptor stimulation with sweet tastants by an automated fluorometric imaging plate reader (FLIPR, Molecular Devices, Sunnyvale, CA). Compounds used as stimuli (Sigma-Aldrich, St. Louis, MO; Merck, Whitehouse Station, NJ) were dissolved in C1 solution. All data were collected from at least three independent experiments carried out in duplicate. The obtained calcium signals were corrected for the response of mock transfected cells and normalized to the fluorescence of cells prior to the application of the stimulus using ΔF/F = (F-F0)/F0.

## COc1ccc(CCC(=O)c2c(O)cc(O[C@@H]3O[C@H](CO)[C@@H](O)[C@H](O)[C@H]3O[C@@H]3O[C@@H](C)[C@H](O)[C@@H](O)[C@H]3O)cc2O)cc1O [NHDC, neohesperidin dihydrochalcone]
hTAS1R2/hTAS1R3; 0.0 μM lactisole
  EC50: 0.2 ± 0.1 mM
  Hill coefficient: 0.8
hTAS1R2/hTAS1R3; 50 μM lactisole
  Hill coefficient: 1.2
hTAS1R2/hTAS1R3; 100 μM lactisole
  Hill coefficient: 1.5
hTAS1R2/hTAS1R3
  increase of EC50 value by lactisole: ~ fourfold
[1]
  EC50: 900 ± 300 µM
  Emax: 60 ± 50%

## CC1=CC(=O)NS(=O)(=O)O1 [acesulfame K]
hTAS1R2/hTAS1R3; 0.0 μM lactisole
  EC50: 0.12 ± 0.04 mM
hTAS1R2/hTAS1R3
  Hill slope: ~ 2

## COC(=O)[C@H](Cc1ccccc1)NC(=O)[C@@H](N)CC(=O)O [aspartame] (HELM PEPTIDE1{D.F.[CO[*:1]]}$$$$V2.0)
hTAS1R2/hTAS1R3; 0.0 μM lactisole
  EC50: 0.5 ± 0.1 mM
hTAS1R2/hTAS1R3
  Hill slope: ~ 2
[1]
  EC50: 900 ± 300 µM
  Emax: 50 ± 2%

## O=S(=O)(O)NC1CCCCC1 [cyclamate]
hTAS1R2/hTAS1R3; 0.0 μM lactisole
  EC50: 2.2 ± 0.3 mM
hTAS1R2/hTAS1R3; 50 μM lactisole
  Hill coefficient: 2.5
hTAS1R2/hTAS1R3
  increase of EC50 value by lactisole: ~ fourfold
[1]
  EC50: > 10000 µM
